Residues, ends and D or L forms follow the SMILES beside them. *: point of attachment. Cbz = O=C(OCc1ccccc1)*
Experiments:
XBP-1 [1] = assay: Metabolic pulse labelling and immunoprecipitation of endogenous XBP-1 proteins; assay type: cell-based, mouse
Description: Mouse embryonic fibroblasts and ES cells lacking IRE1 activity (IRE1α−/− or IRE1α, IRE1β−/−) and PERK−/−fibroblasts were cultured as previously described (Harding et al., “Regulated Translation Initiation Controls Stress-Induced Gene Expression in Mammalian Cells,” Mol. Cell 6:1099-1108 (2000); and Urano et al., “Coupling of Stress in the Endoplasmic Reticulum to Activation of JNK Protein Kinases by Transmembrane Protein Kinase IRE1,” Science 287:664-666 (2000), which are hereby incorporated by reference in their entirety). Cells were treated with tunicamycin (2.5 μg/ml, Calbiochem), thapsigargin (100 nM, Sigma), dithiothreitol (2 mM, Sigma) or the proteasome inhibitor MG132 (25 μM, Calbiochem) as indicated. To prepare B-cell blasts, cells were teased from crushed adult mouse spleen and cultured in the presence of 25 μg/ml E. coli lipopolysaccharide.
Newly synthesized proteins were labeled in vivo with ^35S-methionine and ^35S-cysteine (500 μCi/ml, Translabel, ICN Biochemicals). After removal of the labeling media cells were washed and incubated in complete media for cold-chase. […] Incorporation of radiolabel was quantified by phosphoimager analysis. In calculating the relative synthesis rates of 54 kDa XBP-1 and 33 kDa XBP-1 the relative incorporation of label was corrected for differences in the content of methionine (7:6) and cysteine (4:3) predicted for the two proteins. […]

XBP-1 [2] = assay: XBP-1 immunoblot during in vitro differentiation of B-cells to plasma cells; assay type: cell-based; conditions: mouse spleen cells, 25 μg/ml E. coli lipopolysaccharide
Description: (§1) Mouse embryonic fibroblasts and ES cells lacking IRE1 activity (IRE1α−/− or IRE1α, IRE1β−/−) and PERK−/−fibroblasts were cultured as previously described (Harding et al., “Regulated Translation Initiation Controls Stress-Induced Gene Expression in Mammalian Cells,” Mol. Cell 6:1099-1108 (2000); and Urano et al., “Coupling of Stress in the Endoplasmic Reticulum to Activation of JNK Protein Kinases by Transmembrane Protein Kinase IRE1,” Science 287:664-666 (2000), which are hereby incorporated by reference in their entirety). Cells were treated with tunicamycin (2.5 μg/ml, Calbiochem), thapsigargin (100 nM, Sigma), dithiothreitol (2 mM, Sigma) or the proteasome inhibitor MG132 (25 μM, Calbiochem) as indicated. […]
(§2) XBP-1 proteins in whole cell extracts were detected by immunoblot of 9% PAGE-SDS using a rabbit polyclonal serum directed to residues 97-267 common to both 54 kDa and 33 kDa XBP-1 proteins (sc-7160, Santa Cruz Biotechnology). XBP-1 proteins in transfected cells were detected by a monoclonal antibody to the FLAG epitope tag (Kodak-IBI). CREB and CHOP were detected as described previously (Harding et al., “Regulated Translation Initiation Controls Stress-Induced Gene Expression in Mammalian Cells,” Mol. Cell 6:1099-1108 (2000), which is hereby incorporated by reference in its entirety).

hsp-4::gfp = hsp-4::gfp transcriptional reporter induction in C. elegans (UPR); assay type: in vivo; conditions: gut and hypodermis; plates containing 5 μg/ml tunicamycin
Text: A 1.1 kilobase (Kb) fragment of C. elegans genomic DNA immediately 5′ of the predicted initiation ATG of hsp-4 was amplified by PCR and ligated in-frame with GFP in the plasmid pPD95.75 (gift of Andy Fire, Carnegie Institute of Washington). The hsp-4::gfp(zcIs4) V strain was generated by co-injecting the hsp-4::gfp clone with the lin-15 rescuing plasmid, pSK1 (Clark et al., “The Caenorhabditis elegans Locus Lin-15, a Negative Regulator of a Tyrosine Kinase Signaling Pathway, Encodes Two Different Proteins,” Genetics 137:987-997 (1994), which is hereby incorporated by reference in its entirety), into lin-15(n765ts) animals and then integrating the extrachromosomal array with ultraviolet/trimethylpsoralen (UV/TMP) treatment. The F2 progeny of ethylmethane sulphonate (EMS)-treated hsp-4::gfp(zcIs4)V animals were screened for mutants with high levels of GFP expression to identify mutations that constitutively induce the UPR. Several mutations were recovered, including upr-1(zc6)X, which induced a high level of GFP expression in the posterior gut. To isolate mutations that blocked hsp-4::gfp induction, the F2 progeny of EMS-treated hsp-4::gfp(zcIs4) V; upr-1(zc6)X animals were screened for mutants with a reduced GFP signal. The mutations were mapped using standard methods. […]

XBP-1 [3] = assay: Immunoblot of FLAG-tagged XBP-1 in transfected HEK 293T cells; assay type: cell-based, human; conditions: HEK 293T cells transfected with XBP-1^up
Description: as §1, §2

`CC(C)C[C@@H](C=O)NC(=O)[C@H](CC(C)C)NC(=O)[C@H](CC(C)C)NC(=O)OCc1ccccc1` [proteasome inhibitor, MG132] (Cbz-Leu-Leu-Leu-aldehyde) was tested, and the “levels of 33 kDa XBP-1 protein” value (XBP-1 [1]; mouse fibroblasts, MG132 25 μM) was “increased further”.

In the case of bacterial lipopolysaccharide, the “induction of 54 kDa XBP-1 protein” value (XBP-1 [2]) is reported as “induced”.

In the case of tunicamycin, the “hsp-4::gfp expression” value (hsp-4::gfp) is reported as “strongly induced”, the “expression of FLAG-tagged 54 kDa XBP-1 protein” value (XBP-1 [3]) is reported as “expressed high levels of FLAG-tagged 54 kDa protein” and the “accumulation of endogenous 54 kDa XBP-1” value (XBP-1 [1]; pulse-labeled wildtype cells, tunicamycin 2.5 μg/ml) is reported as “accumulated to high levels”.

— patent US7666587B2, “Method of screening test substances for treating or preventing a disease mediated by plasma cells” (priority 2002, dated 2010)
